Results on 1 compound are retold here after patent US10251944B2, “Cancer vaccines” (Pfizer Inc., priority 2016, dated 2019).

In the test the test system is TUBO tumor cells. Description: Subcutaneous TUBO tumor growth in BALB-neuT mice. The test is classed as in vivo. Details: key to Subcutaneous tumor volumes: tumor volume in mm3. The conditions noted are these: for Subcutaneous tumor volumes: BALB-neuT mice, individual animals, with control vaccine and isotype control monoclonal antibody, listed as IDO1 inhibitor, in mm³. As to the method:
BALB-neuT mice were implanted on study day 0 with TUBO tumor cells by subcutaneous injection. Mice were dosed with 200 mg/Kg of 3-(5-fluoro-1H-indol-3-yl)pyrrolidine-2,5-dione (IDO1 inhibitor) or vehicle twice daily from study day 7 using oral gavage. Comparator groups were sham dosed with vehicle from study day 7 onwards. Appropriated mice were immunized on study day 10 with 1e10 Viral Particles of an adenovirus vector engineered to express rat HER2 (rHER2) (rHER2 vaccine) or vector lacking the rHER2 transgene (control vaccine), by intramuscular injection. Subsequently, 250 ug of an anti-CTLA4 antibody (murine monoclonal antibody to CTLA-4, clone 9D9) or an IgG2 isotype control monoclonal antibody was injected subcutaneously in close proximity to lymph nodes draining the site of adenovirus vector injection. Every two weeks thereafter, mice were immunized with 100 ug of a DNA plasmid encoding rHER2 (rHER2 vaccine) or a DNA plasmid lacking the rHER2 transgene (control vaccine) by electroporation. Subsequent to the DNA plasmid administration, 250 ug of the anti-CTLA4 antibody was injected subcutaneously in close proximity to lymph nodes draining the site of DNA plasmid injection. To track tumor progression, subcutaneous tumor volumes were measured twice a week throughout the study. Animals with subcutaneous tumor volumes that reached 2000 mm3 or displaying irreversible signs of disease were euthanized.

Values joined by “and” are separate entries in the source; they are usually repeats but may differ in a detail not shown here. Equal entries are not always repeated.

Consider `O=C1CC(c2c[nH]c3ccc(F)cc23)C(=O)N1` (stereo not drawn) [001 inhibitor, 3-(5-fluoro-1H-indol-3-yl)pyrrolidine-2,5-dione], for which the “tumor growth rates (subcutaneous tumor volumes), in words” value (BALB-neuT mice with TUBO tumors, IDO1 inhibitor 200 mg/Kg twice daily oral, anti-CTLA4 250 ug s.c., rHER2 adenovirus then DNA) is “No effect on tumor growth rates”. Besides, the Subcutaneous tumor volumes is, setting by setting: (Study Day 18) 87.17 and 43.33 and 77.07 and 67.44 and 136.82 and 73.84 and 62.25 and 84.25 and 115.90 and 47.77 and 40.28 and 81.38 and 130.43; (Study Day 21) 91.03 and 64.93 and 113.76 and 113.10 and 163.91 and 75.81 and 78.22 and 89.04 and 182.85 and 58.23 and 54.88 and 135.90 and 127.97; (Study Day 24) 161.46 and 92.35 and 169.45 and 127.09 and 198.49 and 100.08 and 101.79 and 140.26 and 284.27 and 88.35 and 55.22 and 110.30 and 155.81; (Study Day 27) 163.11 and 110.42 and 171.37 and 129.44 and 240.05 and 125.82 and 123.19 and 186.49 and 361.01 and 112.48 and 80.13 and 147.33 and 241.15; (Study Day 32) 252.04 and 173.28 and 301.94 and 202.21 and 337.79 and 251.57 and 194.14 and 275.98 and 541.91 and 153.38 and 110.90 and 184.76 and 321.37; (Study Day 35) 324.53 and 260.28 and 306.58 and 377.96 and 401.70 and 262.56 and 246.60 and 364.82 and 598.92 and 209.97 and 141.15 and 244.33 and 521.30. The Subcutaneous tumor volumes by setting is: (Study Day 39) 414.72 and 343.13 and 512.15 and 430.30 and 596.09 and 434.13 and 389.39 and 471.60 and 671.98 and 338.06 and 192.15 and 328.32 and 572.30; (Study Day 42) 603.00 and 408.33 and 574.86 and 574.25 and 680.54 and 551.64 and 463.99 and 601.50 and 820.44.
